Laboratory results reported in patent US20250017973A1, “Nutritional composition for cancer” (N.V. Nutricia, priority 2022, published 2025).

System: mammary adenocarcinoma cells
Assay: Dark Agouti Mammary Adenocarcinoma (DAMA) tumour-bearing model: tumour growth and MTX efficacy
Assay type: in vivo, rat
Settings: MTX treated rats
Method: Tumour-bearing studies were conducted in accordance with ethical guidelines approved by the University of Adelaide Animal Ethics committee in accordance with the National Health and Medical Research Committee's Code for the care and use of animals for scientific research. All experiments were performed with N=8 rats per group.
The rats were individually-housed in conventional, open top cages under 12 h light/dark cycles with ad libitum access to autoclaved food and sterile water. Sawdust bedding was provided in all cases with enrichment (crinkle paper for tumour-naïve model or toilet rolls for tumour-bearing model). All cages were randomly arranged across racks to prevent potential bias and dampen variation.
The Dark Agouti Mammary Adenocarcinoma (DAMA) model was used to assess the effect of a composition comprising hydrolysed whey proteins and MCTs on tumor growth. Following acclimatisation (1 week with AIN93G control diet), female DA rats weighing 150-170 g were given ad libitum access to the test or control diet (table 1) for two weeks prior to methotrexate (MTX) treatment (day-14). […] Tumours were measured daily using digital calipers to determine their volume (cm^3). Tumour burden was calculated as tumour length width*depth (volume) and expressed as relative to body weight (% BW, cm^3/g). […]

CN(Cc1cnc2nc(N)nc(N)c2n1)c1ccc(C(=O)N[C@@H](CCC(=O)O)C(=O)O)cc1 [MTX, methotrexate]
tumour burden at necropsy (FIG. 1B volume, FIG. 1C weight, relative to body weight): significantly decreased to (near) zero
